# Entries after “also recorded” stand apart in the source; their conditions may differ.
# Key:
# HHSCs [1] = assay: Measurement of cAMP accumulation in HHSCs; assay type: cell-based, human; settings: for effect of agonist on cellular cAMP accumulation: with rolipram 50 μM, 15 min, CGS-21680 (=10 μM); for effect on forskolin-induced cellular cAMP accumulation: agonist 1 μM, forskolin 10 μM
# Description: (§1) Primary cultured normal human hepatic stellate Cells (HHSCs) were obtained from ScienCell Research Laboratories (San Diego, Calif.) and cultured using stellate cell growth medium (ScienCell Research Laboratories). HHSCs were routinely grown in a humidified incubator with 5% CO2 at 37° C. and reseeded when they reached about 80-90% confluency. Each re-seeding is called a passage. Cells from passages 2 to 5 were used in the following studies.
# Cells were harvested using 0.0025% trypsin and 2 mM EDTA in PBS, washed and resuspended in phenol-free DMEM to a concentration of 1×10^6 cells/ml, and then incubated with 1 U/ml of ADA for 30 min at room temperature. Cells were then treated with AdoR agonists, antagonists, and forskolin in the presence of 50 μM of the phosphodiesterase IV inhibitor, rolipram. After incubating for 15 min at 37° C., cells were lysed and cAMP concentrations were determined using cAMP-Screen Direct™ System (Applied Biosystems) according to the manufacturer's instructions.
# HHSCs [2] = assay: IL-6 release by HHSCs (ELISA); assay type: cell-based, human; design: maximal increase of IL-6 release over the basal level: concentration or dose not given beside the values
# Description: as §1
# (§2) HHSCs were seeded into 12-well tissue culture plates at a density of 1×10^5 cells/well in stellate cell growth medium and allowed to adhere overnight and reach ˜90% confluency. Cells were washed twice in HEPES buffered saline, and cultured in DMEM containing various agonists or antagonists of AdoRs for 1 or 24 h.
# (§3) The concentration of IL-6 in the cell medium was determined using ELISA kits obtained from Biosource (Camarillo, Calif.) according to the manufacturer's instructions. The minimal detection levels of IL-6 with these kits were 2 pg/ml. The concentration of soluble collagen in the cell medium was measured using the Sircol collagen assay (Biocolor Ltd., Belfast N. Ireland) according to manufacture's instructions. The activity of AST in mouse plasma was determined using the Infinity™ AST assay (Thermo Electron Corporation, Waltham, Mass.)
# HHSCs [3] = assay: Collagen production by HHSCs (Sircol collagen assay); assay type: cell-based, human; settings: 24 h
# Description: as §2, §3
# [4] = molecular target: T1, Human A1 adenosine receptor (Homo sapiens, UniProt P30542); settings: read-out: affinity for A1 receptor (Ki); cited from earlier work
# T1 sequence (P30542 1-326): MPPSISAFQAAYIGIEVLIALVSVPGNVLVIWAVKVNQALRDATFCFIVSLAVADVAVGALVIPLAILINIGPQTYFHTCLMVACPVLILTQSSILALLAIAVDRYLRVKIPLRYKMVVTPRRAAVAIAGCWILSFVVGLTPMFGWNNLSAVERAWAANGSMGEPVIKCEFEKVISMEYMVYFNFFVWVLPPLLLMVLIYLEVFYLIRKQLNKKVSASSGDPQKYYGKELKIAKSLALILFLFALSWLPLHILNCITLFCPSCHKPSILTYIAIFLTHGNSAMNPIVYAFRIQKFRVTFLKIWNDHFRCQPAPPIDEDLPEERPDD
# [5] = molecular target: T2, Human A2A adenosine receptor (Homo sapiens, UniProt P29274); settings: read-out: affinity for A2A receptor (Ki); cited from earlier work
# T2 construct: expressed in transfected cells; host or cells: HEK-293 (HEK-A2A), membrane preparation
# [6] = molecular target: T3, Human A3 adenosine receptor (Homo sapiens, UniProt P0DMS8); settings: read-out: affinity for A3 receptor (Ki); cited from earlier work
# T3 construct: expressed in transfected cells; host or cells: CHO (CHO-A3), membrane preparation
# T3 sequence (P0DMS8 1-318): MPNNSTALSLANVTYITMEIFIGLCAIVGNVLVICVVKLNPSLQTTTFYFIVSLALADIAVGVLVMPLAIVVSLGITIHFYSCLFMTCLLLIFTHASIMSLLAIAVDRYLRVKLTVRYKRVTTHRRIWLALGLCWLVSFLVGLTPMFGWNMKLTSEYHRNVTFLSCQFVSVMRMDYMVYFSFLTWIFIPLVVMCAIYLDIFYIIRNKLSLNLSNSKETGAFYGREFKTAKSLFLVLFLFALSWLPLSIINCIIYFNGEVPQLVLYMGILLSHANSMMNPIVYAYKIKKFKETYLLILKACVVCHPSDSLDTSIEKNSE
# HHSCs [7] = assay: mRNA levels of α-smooth muscle actin and α-1 pro-collagen in HHSCs (real-time RT-PCR); assay type: cell-based, human; settings: NECA 10 μM, 1 h
# Description: HHSCs were seeded into 12-well tissue culture plates at a density of 1×10^5 cells/well in stellate cell growth medium and allowed to adhere overnight and reach ˜90% confluency. Cells were washed twice in HEPES buffered saline, and cultured in DMEM containing various agonists or antagonists of AdoRs for 1 or 24 h. Total RNA was extracted from HHSCs using the Stratagene Absolutely RNA™ RT-PCR Miniprep Kit followed by DNase treatment to eliminate potential genomic DNA contamination. Real-time RT-RCR for adenosine receptors was performed as previously described in Zhong et al. (2004) Am J Respir Cell Mol Biol; 30(1):118-125. The specific primers for α-smooth muscle actin used were: while the primers for α-1 pro-collagen were: and each of these primers were designed using Primer Express 2.0 (Applied Biosystems) following the recommended guidelines based on sequences from Genbank. At the end of the PCR cycle, a dissociation curve was generated to ensure the amplification of a single product, and the threshold cycle time (Ct value) for each gene was determined. Relative mRNA levels were calculated based on the Ct values, normalized to β-actin in the same sample, and presented as percentages of β-actin mRNA. Measurement of cAMP Accumulation
# ADA^−/− mice = assay: Plasma AST levels in ADA-deficient mice; assay type: in vivo; settings: 1 mg/kg per injection i.p. morning and evening for 17 days, vs vehicle
# Description: as §3
# Adenosine deaminase (ADA)-deficient mice were generated and genotyped as described in Blackburn et al. (1998), J Biol Chem, 273(9):5093-5100. Mice homozygous for the null Ada allele were designated ADA-deficient (ADA^−/−), while mice heterozygous for the null Ada allele were designated as ADA control mice (ADA^+). All mice were on a mixed 129sv/C57BL/6J background and all phenotypic comparisons were performed amongst littermates. Animal care was in accordance with institutional and NIH guidelines. Mice were housed in ventilated cages equipped with microisolator lids and maintained under strict containment protocols. No evidence of bacterial, parasitic, or fungal infection was found, and serologies on cage littermates were negative for 12 of the most common murine viruses. […]
# T2 sequence (P29274 whole entry): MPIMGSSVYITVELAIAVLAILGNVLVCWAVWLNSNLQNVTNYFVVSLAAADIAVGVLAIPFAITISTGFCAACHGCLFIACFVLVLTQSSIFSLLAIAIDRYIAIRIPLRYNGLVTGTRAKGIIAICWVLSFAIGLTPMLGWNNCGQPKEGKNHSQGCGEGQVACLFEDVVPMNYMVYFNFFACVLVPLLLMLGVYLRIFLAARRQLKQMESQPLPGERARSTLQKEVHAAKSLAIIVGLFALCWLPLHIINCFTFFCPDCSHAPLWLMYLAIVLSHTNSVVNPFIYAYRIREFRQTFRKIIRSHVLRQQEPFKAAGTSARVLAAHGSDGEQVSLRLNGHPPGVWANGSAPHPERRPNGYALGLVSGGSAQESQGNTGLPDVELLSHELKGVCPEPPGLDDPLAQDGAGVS
structure (smiles),measurement,setting,value
CCNC(=O)[C@H]1O[C@@H](n2cnc3c(N)nc(NCCc4ccc(CCC(=O)O)cc4)nc32)[C@H](O)[C@@H]1O [CGS-21680],effect of agonist on cellular cAMP accumulation,HHSCs [1],did not cause a significant increase
"CCCn1c(=O)[nH]c2nc(-c3cnn(Cc4noc(-c5ccc(Cl)cc5)n4)c3)[nH]c2c1=O [compound (1), 8-(1-{[5-(4-chlorophenyl)(1,2,4-oxadiazol-3-yl)]methyl}pyrazol-4-yl)-1-propyl-1,3,7-trihydropurine-2,6-dione]",effect on NECA-induced cellular cAMP accumulation,HHSCs [1]; antagonist 1 μM,significantly attenuated
same,reduction of NECA-increased IL-6 release,HHSCs [2]; compound 1 μM together with NECA 10 μM,90.7±0.1%
same,effect on NECA-induced collagen production,HHSCs [3]; NECA 10 μM,abolished
same,Ki,[4],> 5 µM
same,Ki,[5],> 5 µM
same,Ki,[6],> 5 µM
"OC[C@H]1O[C@@H](n2cnc3c(NC4CCCC4)ncnc32)[C@H](O)[C@@H]1O [CPA, N6-cyclopentyladenosine]",effect on forskolin-induced cellular cAMP accumulation,HHSCs [1],Lack of effect; also recorded: failed to inhibit
"CCNC(=O)[C@H]1O[C@@H](n2cnc3c(N)ncnc32)[C@H](O)[C@@H]1O [NECA, 5′-(N-ethylcarboxamido)-adenosine]",effect of agonist on cellular cAMP accumulation,HHSCs [1],increased cellular cAMP accumulation in a concentration-dependent manner
same,maximal increase of IL-6 release over the basal level,HHSCs [2],11.9±3.1 fold
same,effect on IL-6 release,HHSCs [2]; 24 h,increased IL-6 release in a concentration-dependent manner
same,increase of IL-6 release compared to vehicle-treated cells,"HHSCs [2]; NECA 100 μM, 24 h",11.9±3.1 fold
same,expression of α-1 pro-collagen mRNA,HHSCs [7],significantly increased
same,expression of α-smooth muscle actin mRNA,HHSCs [7],significantly increased
same,release of soluble collagen,HHSCs [3],increased; also recorded: significant increase
"CCCn1c(=O)c2[nH]c(-c3cnn(Cc4cccc(C(F)(F)F)c4)c3)nc2n(CC)c1=O [compound (2), 3-ethyl-1-propyl-8-(1-{[3-(trifluoromethyl)phenyl]methyl}pyrazol-4-yl)-1,3,7-trihydropurine-2,6-dione]",plasma AST levels,ADA^−/− mice,significant reduction
Nc1ncnc2c1ncn2[C@@H]1O[C@H](CO)[C@@H](O)[C@H]1O [adenosine],maximal increase of IL-6 release over the basal level,HHSCs [2],11.9±3.1 fold
same,effect on IL-6 release,HHSCs [2]; 24 h,increased IL-6 release in a concentration-dependent manner
CNC(=O)[C@H]1O[C@@H](n2cnc3c(NCc4cccc(I)c4)ncnc32)[C@H](O)[C@@H]1O [IB-MECA],effect on forskolin-induced cellular cAMP accumulation,HHSCs [1],Lack of effect; also recorded: failed to inhibit
